Laboratory results: patent US12611380B2, “Solution and method for reducing the virulence of viruses, bacteria, yeasts, or fungus” (priority 2020, dated 2026)

Experiments:
microbial growth = assay: Reduction in microbial growth; format: cell-based; conditions: potassium hexadiene at pH 9
[1] = Clinical observation on washing with ILPS; format: in vivo; conditions: general cosmetic use

Question: With “potassium salt of isomerized linoleic acid [ILCS]” as the substance, how does the “reduction in microbial growth” value (microbial growth) read?
Answer: 8-10 log reduction

Question: What about the acne [1] of the same substance?
Answer: clinical remission of acne
